# From US20150080305A1, “APPLICATION OF INITIAL DOSES OF LHRH ANALOGUES AND MAINTENANCE DOSES OF LHRH ANTAGONISTS FOR THE TREATMENT OF HORMONE-DEPENDENT CANCERS AND CORRESPONDING PHARMACEUTICAL KITS” (AETERNA ZENTARIS GmbH, priority 2006, published 2015)
# Square brackets hold non-standard residues; d marks the D form. Peptide text beside a SMILES is read from it. dPhe(4-Cl) = N[C@H](Cc1ccc(Cl)cc1)C(=O)O; d2Nal = N[C@H](Cc1ccc2ccccc2c1)C(=O)O; dCit = NC(=O)NCCC[C@@H](N)C(=O)O; d3Pal = N[C@H](Cc1cccnc1)C(=O)O
# Experiments:
# PSA levels = PSA levels in prostate cancer patients under initial/maintenance dose regimen; type: in vivo, human; settings: for PSA levels decrease during first period: prostate cancer patients
# Method: (§1) 130 mg ozarelix is given as a single monthly initial dose per i.m. injection every 4 weeks to patients suffering from prostate cancer for a first period of 3 months. […] Subsequently, patients are treated with single monthly maintenance doses of 30 mg ozarelix given per i.m. injection over a period of 6 months. […] The treatment scheme is then repeated continuously (chronic treatment).
# (§2) 00 mg ozarelix is given as a single initial dose per i.m. injection once every 3 months to patients suffering from prostate cancer for a first period of 3 to 6 months. […] Subsequently, patients are treated with single monthly maintenance doses of 40 mg ozarelix given per i.m. injection over a period of 6 months. […] The treatment scheme is then repeated continuously (chronic treatment).
# as §1, with “3.75” for “130”, “leuprorelin (leuprolide) are” for “ozarelix is”, “6” for “3”, “20” for “30”, “9” for “6”
# as §2, with “11.25” for “00”, “leuprorelin (leuprolide) are” for “ozarelix is”, “three” for “3”, “3” for “3 to 6”, “50” for “40”, “3” for “6”
# testosterone levels = assay: Testosterone levels in prostate cancer patients under initial/maintenance dose regimen; type: in vivo, human; settings: for testosterone levels during first period: prostate cancer patients
# Method: as §1, §2
# as §1, with “3.75” for “130”, “leuprorelin (leuprolide) are” for “ozarelix is”, “6” for “3”, “20” for “30”, “9” for “6”
# as §2, with “11.25” for “00”, “leuprorelin (leuprolide) are” for “ozarelix is”, “three” for “3”, “3” for “3 to 6”, “50” for “40”, “3” for “6”
# hormone concentration = settings: volunteer tests; cited from earlier work
# [1] = Example 1: 130 mg single monthly initial dose i.m. every 4 weeks, first period of 3 months
# [2] = Example 1: single monthly maintenance doses of 30 mg i.m. over 6 months, after 130 mg ozarelix initial doses
# [3] = Example 2: 00 mg single initial dose i.m. once every 3 months, first period of 3 to 6 months
# [4] = Example 2: single monthly maintenance doses of 40 mg i.m. over 6 months, after ozarelix initial doses
# [5] = Example 3: single monthly maintenance doses of 20 mg i.m. over 9 months, after 3.75 mg leuprorelin initial doses
# [6] = Example 4: single monthly maintenance doses of 50 mg i.m. over 3 months, after 11.25 mg leuprorelin initial dose
# [7] = Example 3: 3.75 mg single monthly initial dose i.m. every 4 weeks, first period of 6 months
# [8] = Example 4: 11.25 mg single initial dose i.m. once every three months, first period of 3 months
compound,measurement,setting,value
ozarelix,PSA levels decrease during first period,PSA levels; [1],up to 95%
same,PSA levels during second period,PSA levels; [2],remain stably low
same,PSA levels decrease during first period,PSA levels; [3],up to 95%
same,PSA levels during second period,PSA levels; [4],remain stably low
same,PSA levels during second period,PSA levels; [5],remain stably low
same,PSA levels during second period,PSA levels; [6],remain stably low
same,testosterone levels during first period,testosterone levels; [1],quickly reach castration level
same,testosterone levels during second period,testosterone levels; [2],above 0.5 ng/mL
same,testosterone levels during first period,testosterone levels; [3],quickly reach castration level
same,testosterone levels during second period,testosterone levels; [4],above 0.5 ng/mL
same,testosterone levels during second period,testosterone levels; [5],above 0.5 ng/mL
same,testosterone levels during second period,testosterone levels; [6],above 0.5 ng/mL
"CCNC(=O)[C@@H]1CCCN1C(=O)[C@H](CCCNC(=N)N)NC(=O)[C@H](CC(C)C)NC(=O)[C@@H](CC(C)C)NC(=O)[C@H](Cc1ccc(O)cc1)NC(=O)[C@H](CO)NC(=O)[C@H](Cc1c[nH]c2ccccc12)NC(=O)[C@H](Cc1c[nH]cn1)NC(=O)[C@@H]1CCC(=O)N1 [leuprorelin, reference compound]",PSA levels decrease during first period,PSA levels; [7],up to 95%
same,PSA levels decrease during first period,PSA levels; [8],up to 95%
same,testosterone levels during first period,testosterone levels; [7],quickly reach castration level
same,testosterone levels during first period,testosterone levels; [8],quickly reach castration level
CC(=O)N[C@H](Cc1ccc2ccccc2c1)C(=O)N[C@H](Cc1ccc(Cl)cc1)C(=O)N[C@H](Cc1cccnc1)C(=O)N[C@@H](CO)C(=O)N[C@@H](Cc1ccc(O)cc1)C(=O)N[C@H](CCCNC(N)=O)C(=O)N[C@@H](CC(C)C)C(=O)N[C@@H](CCCNC(=N)N)C(=O)N1CCC[C@H]1C(=O)N[C@H](C)C(N)=O [cetrorelix] (Ac-[d2Nal][dPhe(4-Cl)][d3Pal]SY[dCit]LRP[dA]-NH2),dose necessary for complete suppression of the hormone concentration to castration level,hormone concentration,10 mg daily
